In US6083973A, “Methods for inhibiting mucin secretion using RAR α selective antagonists” (Syntex (U.S.A.) Inc., priority 1999, dated 2000):

Legend:
RXR receptors = conditions: cited from earlier work
[1] = tested on: goblet cell hyperplasia in rats; test: LPS-induced goblet cell hyperplasia, morphometric analysis; format: in vivo, rat; conditions: ATRA 2 mg/kg ip once daily
Method: (§1) All-trans retinoic acid (ATRA) was evaluated for its effects on mucous hypersecretion in the rat model of endotoxin/lipopolysacharide (LPS)-induced lung inflammation (Steiger et al. J. Am. Respir. Cell Mol. Biol., 12:307-314 (1995)). Animals were divided into treatment groups of approximately six. Lung inflammation was induced in male Long Evans rats by repeated instillation of LPS (LPS derived from Pseudomonas aeriginos; Sigma Chemical) 400 μg/Kg/dose/day for three days. ATRA was dissolved in DMSO (20 mg/ml) and stored at -20 C. Fresh working stocks were prepared fresh daily by dilution in PBS to a final concentration of 2 mg/ml. Animals treated with ATRA (2 mg/kg ip) were dosed once daily by intraperitoneal injection, starting 24 hours prior to the first LPS challenge. Two control groups were included in the study, treatment with vehicle (DMSO/PBS) followed by LPS and treatment with ATRA alone. Animals were sacrificed 24 hours after the last LPS challenge by exsanguination under deep anesthesia.
After lavage the lungs were perfused with 10% neutral buffered formalin by intratracheal instillation at a constant rate (5 ml at 1 ml/min). The left lobe was excised and immersed in fixative for 24 hours prior to processing. Standard methods were used to prepare 5 μm paraffin sections. […]

MUC5AC [2] = test: MUC5AC gene transactivation in NHBE cells, RT-PCR; format: cell-based, human; conditions: for MUC5AC gene induction: 1×10^-7 M, Example 1; for MUC5AC gene expression, compound alone: Example 3, antagonist 1×10^-6 M or agonist 1×10^-7 M
Method: (§2) Transactivation of mucin genes in normal primary human bronchial epithelial cells (NHBE) was performed as described by Gray et al. Am. J. Respir. Biol., 14:104-112 (1996). Primary human airway epithelial cells were cultured on porous Transwell membranes (Corning/Costar) in defined media in the absence of all-trans retinoic acid (ATRA) for 7 days. After seven days, fresh media±ATRA or selective retinoid, was added to the basal culture compartment to create an air-liquid interface (ALI). ATRA and/or selective retinoids were used at a concentration or 1×10^-7 M. The selective retinoids used were: Compound X (RARα selective agonist), RXR agonist (SRI 11217) and anti-AP1 retinoid (SRI 11302). After seven additional days of culture the media was harvested for analysis of secreted mucin gene product using specific ELISA as previously described (Gray et al). The cell layer was lysed using a guanidinium-based buffer (TRIZOL/Sigma) for RNA extraction and analysis. Amplification of MUC2 and MUC5AC RNA was performed by standard RT-PCR using appropriate selective primer and mimics pairs (Guzman et al., Am. J. Physiol. 271 (Lung Cell Mol Physiol.15): L1023-L1028 (1996) and PCR products were detected in ethedium bromide stained agarose gels.
(§3) Transactivation of mucin genes in NHBE was performed as described above with the exception that media was supplemented with RAR alpha (RARα), beta (RARβ), or gamma (RARγ)-selective retinoids on days 7 through day 14. The RAR alpha (RARα), beta (RARβ), or gamma (RARγ)-selective retinoids were compounds X, Y and CD-437 respectively.
(§4) Transactivation of mucin genes in NHBE was performed as described above. On days 7 through day 14 cells were cultured with 1×10^-6 M RARα antagonist, Compound Z, alone or in combination with 1×10^-7 M ATRA or RARα selective agonist, Compound X. The effects on mucin gene transactivation and expression were determined by RT-PCR and ELISA as described above. RARα selective antagonist, Compound Z, had no effect on MUC2 or MUC5AC gene expression.

[3] = tested on: LPS-induced mucin hypersecretion in rats; test: Mucous hypersecretion in rat model of LPS-induced lung inflammation; format: in vivo; conditions: for mucous hypersecretion in rats: 10 mg/kg daily starting 72 hours prior to LPS challenge
Method: as §1
The lungs were lavaged with phosphate buffered saline (2×5 ml) to wash out mucous layer. The lavage fluid (BAL) was centrifuged for 10 min at 500×g and the cell-free supernate was frozen and stored -20° C. until analyzed for secreted mucin by Alcian-blue/PAS dot blot assay to determine relative contribution of neutral and acidic mucins. Standard curves were generated using bovine intestinal mucins (Sigma) TYPE 1 (Alc. blue/acidic mucins) and TYPE II (PAS+/neutral mucin). Each sample was assayed in triplicate and data presented as […] total mucin. (FIG. 4b)
The effect of RARα selective antagonists Ia and Ib on mucous hypersecretion in the rat and mouse models of LPS-induced lung inflammation was evaluated according to the procedure of Example 4. Animals were treated with compound (10 mg/kg) or vehicle daily starting 72 hours prior to LPS challenge.

[4] = tested on: RAR subtypes (α, β, and γ); conditions: cited from earlier work
[5] = tested on: mucin gene expression in human epithelial cells; test: Mucin gene expression (MUC2 and MUC5AC) in human epithelial cells; format: cell-based
Method: as §2, §4

MUC2 [6] = test: MUC2 gene transactivation in NHBE cells, RT-PCR; format: cell-based, human; conditions: for MUC2 gene induction: 1×10^-7 M, Example 1; for MUC2 gene expression, compound alone: Example 3, antagonist 1×10^-6 M or agonist 1×10^-7 M
Method: as §2, §3, §4

[7] = tested on: primary human bronchial epithelium; test: Mucin protein secretion from NHBE cells, ELISA; format: cell-based; conditions: for mucin secretion: 1×10^-7 M, FIG. 1(b)
Method: as §2
Corresponding mucin protein secretion data are shown in FIG. 1(b) as ELISA data representing results from separate samples run in triplicate. Data presented as mean±sem. The mucin protein secretion data were consistent with gene induction results.
as §4

MUC5AC [8] = test: LPS-stimulated MUC5AC mRNA transcription, dose response; format: cell-based; conditions: Homo sapiens, normalized to glyceraldehyde phosphate 3-dehydrogenase, read-out: inhibition of MUC5AC gene transcription IC50
Method: (§5) An in vitro assay was established to screen retinoid-based compounds for their effects on LPS-induced mucin gene expression using a continuous human lung epithelial cell line, NIH-292. NIH-292 cells were cultured in standard T-75 tissue culture flasks in DMEM/F12 media containing 10% fetal bovine serum (FBS). Upon confluence the media was changed to defined medium Optimem (Sigma) supplemented with 1% FBS 24 hours prior to challenge with 10 μg/ml LPS (P. aeriginos, Sigma Chemical). RAR selective antagonist, Compound Z, was added 24 hours prior to LPS challenge. ATRA and specific retinoids were prepared as DMSO stocks. Cells were harvested 6 or 24 hours after LPS challenge using a guanidinium-basedbuffer (TRIZOL/Sigma) for RNA extraction and analysis. Amplification of β-actin, MUC1, MUC2 and MUC5AC specific RNA was performed by using an automated fluorescent detection method for quantitation of real time RT-PCR (TAQMAN, Applied Biosystems/Perkin Elmer). Standard curves were generated for each of the relevant mucin RNAs using control plasmid. Analysis was performed in triplicate from duplicate samples.
Cells were stimulated with LPS in the presence or absence of Ia. MUC5AC specific mRNA was measured and is graphed normalized relative to glyceraldehyde phosphate 3-dehydrogenase control.

NIH-292 cells = test: LPS-induced mucin gene expression in NIH-292 cells, real time RT-PCR; format: cell-based, human; conditions: added 24 hours prior to 10 μg/ml LPS
Method: as §5

[9] = tested on: LPS-induced mucous hypersecretion in mice; test: Mucous hypersecretion in mouse model of LPS-induced lung inflammation; format: in vivo; conditions: 10 mg/kg daily starting 72 hours prior to LPS challenge
Method: as §1, with “Two control groups were included in the study, treatment with vehicle (DMSO/PBS) followed by LPS and treatment with ATRA alone. Animals were sacrificed 24 hours after the last LPS challenge by exsanguination under deep anesthesia.” left out
The lungs were lavaged with phosphate buffered saline (2×5 ml) to wash out mucous layer. The lavage fluid (BAL) was centrifuged for 10 min at 500×g and the cell-free supernate was frozen and stored -20° C. until analyzed for secreted mucin by Alcian-blue/PAS dot blot assay to determine relative contribution of neutral and acidic mucins. […]
The effect of RARα selective antagonists Ia and Ib on mucous hypersecretion in the rat and mouse models of LPS-induced lung inflammation was evaluated according to the procedure of Example 4. […]

MUC2 [10] = conditions: G. An, et al.; cited from earlier work
[11] = 1×10^-6 M antagonist with 1×10^-7 M ATRA or Compound X
[12] = even at the highest dose, 1×10^-6 M, Example 2

For `CC1=C(/C=C/C(C)=C\C=C\C(C)=C\C(=O)O)C(C)(C)CCC1` [9-cis isomer of retinoic acid], the “binding to RXR receptors” value (RXR receptors) is listed as “bind instead to the 9-cis isomer of retinoic acid”.
In the case of `CC1=C(/C=C/C(C)=C/C=C/C(C)=C/C(=O)O)C(C)(C)CCC1` [ATRA, All-trans retinoic acid], the “LPS-induced goblet cell hyperplasia” value [1] is reported as “enhancement”, the MUC5AC gene induction (MUC5AC [2]) is reported as “induce both MUC2 and MUC5AC gene induction” and the “MUC5AC gene expression, compound alone” value (MUC5AC [2]) is reported as “potent inducers”. For the same compound, the “LPS-induced mucin hypersecretion in rats” value ([3]; ATRA 2 mg/kg ip once daily) was “enhancement”, the “binding to the three RAR subtypes” value [4] was “binds with approximately equal affinity to all the three RAR subtypes” and the “mucin gene expression, specifically MUC2 and MUC5AC” value ([5]; retinoid agonists) was “transactivates mucin gene expression”. For the same compound, the MUC2 gene induction (MUC2 [6]) was “induce both MUC2 and MUC5AC gene induction”, the “MUC2 gene expression, compound alone” value (MUC2 [6]) was “potent inducers” and the mucin secretion [7] was “increase in mucin secretion”. The “binding to RXR receptors” value (RXR receptors) was “do not bind to all-trans retinoic acid”.
For `CCCCCCCOc1cc2c(cc1/C(C)=C/c1ccc(C(=O)O)cc1)C(C)(C)CCS2(=O)=O` [Compound Ia], the “inhibition of ATRA- or Compound X-induced MUC5AC” value (MUC5AC [2]; [11]) was “completely inhibited”, the “MUC5AC gene expression, compound alone” value (MUC5AC [2]) was “no effect” and the IC50 (MUC5AC [8]) was under 10 nM. For the same compound, the “mucous hypersecretion in rats” value [3] was “reduced the amount of mucous hypersecretion relative to vehicle”, the “LPS induced mucin gene expression” value (NIH-292 cells) was “inhibit LPS induced mucin gene expression” and the “inhibition of retinoid induced mucin gene expression” value [5] was “inhibited”. The “mucous hypersecretion in mice” value [9] was “reduced the amount of mucous hypersecretion relative to vehicle”, the “inhibition of ATRA- or Compound X-induced MUC2” value (MUC2 [6]; [11]) was “completely inhibited” and the “MUC2 gene expression, compound alone” value (MUC2 [6]) was “no effect”. The “inhibition of ATRA- or Compound X-induced mucin protein secretion” value ([7]; 1×10^-6 M antagonist with 1×10^-7 M ATRA or Compound X, FIG. 3b) was “completely inhibited”.
For `CCCCCCCOc1cc2c(cc1/C(C)=C/C=C/C(C)=C/C(=O)O)C(C)(C)CCS2(=O)=O` [Compound Ib], the “mucous hypersecretion in rats” value [3] was “reduced the amount of mucous hypersecretion relative to vehicle”, the “inhibition of retinoid induced mucin gene expression” value [5] was “inhibited” and the “mucous hypersecretion in mice” value [9] was “reduced the amount of mucous hypersecretion relative to vehicle”.
With `CC1(C)CCC(C)(C)c2cc(C(=O)Nc3ccc(C(=O)O)cc3)ccc21` [Compound X] the MUC5AC gene induction (MUC5AC [2]) was “induce both MUC2 and MUC5AC gene induction”, the MUC5AC gene activation (MUC5AC [2]; 1×10^-9 M, Example 2) was “most potent inducer” and the “MUC5AC gene expression, compound alone” value (MUC5AC [2]) was “potent inducers”. The “Induction of MUC5AC” value (MUC5AC [2]; [12]) was “minimal”, the MUC2 gene induction (MUC2 [6]) was “induce both MUC2 and MUC5AC gene induction” and the MUC2 gene activation (MUC2 [6]; 1×10^-9 M, Example 2) was “most potent inducer”. For the same compound, the “MUC2 gene expression, compound alone” value (MUC2 [6]) was “potent inducers”, the “Induction of MUC2” value (MUC2 [6]; [12]) was “minimal” and the mucin secretion [7] was “increase in mucin secretion”.
For `CC(C)=C(c1ccc(C(=O)O)cc1)c1ccc2c(c1)C(C)(C)CCC2(C)C` [SRI 11217, 4-[1-(5,6,7,8-tetrahydro-5,5,8,8,-tetramethyl-2-naphthalenyl)-2-methylpropenyl]-benzoic acid], the MUC5AC gene induction (MUC5AC [2]) was “no effect on induction of either gene” and the MUC2 gene induction (MUC2 [6]) was “no effect on induction of either gene”.
In the case of `CC1=C(/C=C/C(C)=C/C=C/C(C)=C/CO)C(C)(C)CCC1` [retinol], the “expression of the MUC2 gene” value (MUC2 [10]) is given as “down-regulated”.
